The subject of assay [1] is OT-1 CD8+ T cells with SIINFEKL-loaded MC38 tumor cells. Put plainly: Murine cytotoxic T lymphocyte assay (IFN-γ, OT-1 CTL with MC38 tumor cells). Format: cell-based, mouse. As to conditions: read-out: msCTL INFg IC50. In a few lines: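 OT-1 CD8+ T cells, expanded 5 days with OVA peptide (1 μg/mL) and mIL2, pretreated 1 h with DGK inhibitors, then co-cultured overnight at 37° C at 1:10 with MC38 cells pulsed 3 h with 1 μg/mL SIINFEKL. IFN-γ in 24 h supernatant by AlphaLISA.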

The subject of another assay is Human venous whole blood. Put plainly: Human whole blood IFN-γ assay.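 Also: blood from healthy donors exposed to compound for 1 h before stimulation with anti-CD3 and anti-CD28 at 1 µg/mL each, IFN-γ quantified in supernatant by AlphaLISA.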 Particulars: human whole blood, normalized to 3 μM reference compound with anti-CD3 plus anti-CD28 as 100% activation, read-out: INFg Whole Blood Normalized Agonist EC50. Format: cell-based.
A further assay deals with T1, human DGKα (Homo sapiens, UniProt P23743).
T1 construct: TVMV protease cleavage site (C); Hexa-His (C); made in house; host or cells: Sf9 insect cells (baculovirus, Bac-to-Bac)
Put plainly: DGKα LIPGLO assay (extruded liposome substrate), in vitro DGK inhibition. Type of assay: biochemical. As to conditions: liposome (LIPGLO) assay; read-out: DGKa LIPGLO IC50.

The subject of another assay is naïve human CD8 T cells. The assay can be described thus: Human CD8 T cells IFN-γ assay.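 Also: Naïve human CD8 T cells stimulated with plate-bound anti-CD3 and soluble anti-CD28, IFN-γ in supernatant quantified by AlphaLISA and converted to pg/mL.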 Format: cell-based. As to conditions: normalized to 3 μM reference compound with anti-CD3 plus anti-CD28 as 100% activation, read-out: HuCD8 INFG Normalized EC50.
A further assay addresses T2, human DGKζ (Homo sapiens, UniProt Q13574).
T2 construct: TVMV protease cleavage site (C); Hexa-His (C); made in house; host or cells: Sf9 insect cells (baculovirus, Bac-to-Bac)
The assay can be described thus: DGKζ LIPGLO assay (extruded liposome substrate), in vitro DGK inhibition. Format: biochemical. As to conditions: liposome (LIPGLO) assay; read-out: DGKz LIPGLO IC50.

Like-named read-outs stand apart in the source and are kept apart here.

T1 sequence (P23743 with tags, fused parts or gaps): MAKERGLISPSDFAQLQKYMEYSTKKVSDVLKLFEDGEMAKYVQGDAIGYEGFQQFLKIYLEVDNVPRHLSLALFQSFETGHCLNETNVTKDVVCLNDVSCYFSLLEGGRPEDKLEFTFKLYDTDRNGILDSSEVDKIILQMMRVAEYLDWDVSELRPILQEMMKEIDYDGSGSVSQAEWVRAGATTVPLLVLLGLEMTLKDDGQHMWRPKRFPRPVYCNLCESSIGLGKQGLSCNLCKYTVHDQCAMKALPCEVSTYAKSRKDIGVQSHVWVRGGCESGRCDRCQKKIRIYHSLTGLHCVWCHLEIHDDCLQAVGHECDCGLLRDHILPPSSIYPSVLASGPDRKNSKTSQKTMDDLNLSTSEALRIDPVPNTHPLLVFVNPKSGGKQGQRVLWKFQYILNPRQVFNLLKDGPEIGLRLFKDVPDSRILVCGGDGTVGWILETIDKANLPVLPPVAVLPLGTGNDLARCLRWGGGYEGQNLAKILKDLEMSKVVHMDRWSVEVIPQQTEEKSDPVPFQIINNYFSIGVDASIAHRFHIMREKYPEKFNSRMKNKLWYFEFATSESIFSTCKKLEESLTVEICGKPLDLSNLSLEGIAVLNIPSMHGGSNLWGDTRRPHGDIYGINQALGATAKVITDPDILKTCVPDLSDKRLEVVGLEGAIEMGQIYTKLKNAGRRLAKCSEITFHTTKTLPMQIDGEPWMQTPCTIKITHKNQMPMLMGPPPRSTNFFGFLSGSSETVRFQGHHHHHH
T2 sequence (Q13574 with tags, fused parts or gaps isoform Q13574-4): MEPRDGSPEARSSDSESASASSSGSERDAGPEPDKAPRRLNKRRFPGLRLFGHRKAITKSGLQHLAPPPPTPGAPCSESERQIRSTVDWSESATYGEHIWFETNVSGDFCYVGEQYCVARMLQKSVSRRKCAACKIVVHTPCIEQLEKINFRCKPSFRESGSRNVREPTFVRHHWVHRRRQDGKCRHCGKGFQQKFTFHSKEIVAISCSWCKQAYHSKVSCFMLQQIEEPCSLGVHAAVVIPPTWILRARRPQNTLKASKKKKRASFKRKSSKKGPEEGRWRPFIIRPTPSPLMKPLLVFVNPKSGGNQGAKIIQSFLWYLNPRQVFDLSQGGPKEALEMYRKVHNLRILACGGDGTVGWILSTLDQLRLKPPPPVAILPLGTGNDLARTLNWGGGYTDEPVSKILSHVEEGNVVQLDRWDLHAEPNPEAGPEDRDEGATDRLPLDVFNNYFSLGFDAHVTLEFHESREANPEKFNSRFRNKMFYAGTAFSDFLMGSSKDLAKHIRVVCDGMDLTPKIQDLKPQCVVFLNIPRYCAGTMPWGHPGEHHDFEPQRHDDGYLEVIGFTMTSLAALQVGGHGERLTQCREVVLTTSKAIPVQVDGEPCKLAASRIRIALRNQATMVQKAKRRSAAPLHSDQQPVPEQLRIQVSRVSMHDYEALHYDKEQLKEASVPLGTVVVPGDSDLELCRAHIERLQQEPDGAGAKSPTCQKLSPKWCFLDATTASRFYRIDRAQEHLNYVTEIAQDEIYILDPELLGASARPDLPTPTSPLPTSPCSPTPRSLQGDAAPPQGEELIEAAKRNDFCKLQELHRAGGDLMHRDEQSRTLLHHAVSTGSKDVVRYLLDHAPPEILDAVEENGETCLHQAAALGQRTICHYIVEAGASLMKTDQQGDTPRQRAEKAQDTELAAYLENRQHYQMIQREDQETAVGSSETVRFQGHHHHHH
Method for Human venous whole blood: Human Whole Blood IFN-γ Assay
Human venous whole blood (22.5 μL per well), obtained from healthy donors, was pre-treated with compounds for one hour at 37° C. in a humidified 95% air/5% CO2 incubator. The blood was stimulated with 2.5 μL anti-human CD3 and anti-CD28 mAb at a final concentration of 1 μg/mL each for 24 hours at 37° C. IFN-γ in the supernatants was measured using AlphLISA kit (Cat # AL217).
Method for naïve human CD8 T cells: Human CD8 T Cells IFN-γ Assay
Frozen naïve human CD8 T cells were thawed in AIM-V media, incubated for 2 h in 37° C., and counted. The 384-well tissue culture plate was coated overnight at 4° C. with 20 μL anti-human CD3 at 0.05 μg/mL in PBS, which was removed off the plate before 40,000 cells per 40 microliters CD8 T cells with 0.1 μg/mL soluble anti-human CD28 were added to each well. The compounds were transferred using an Echo liquid handler to the cell plate immediately after the cells were plated. After 20 h incubation at 37° C. incubator, 3 microliters per well supernatants transferred into a new 384-well white assay plate for cytokine measurement.
Interferon-γ (IFN-γ) was quantitated using the AlphLISA kit (Cat # AL217) as described by the manufacturer manual (Perkin Elmer). The counts from each well were converted to IFN-γ concentration (pg/mL).

For the compound `C[C@@H]1CN(c2cc(=O)n(C)c3ccc(C#N)nc23)[C@@H](C)CN1C(c1ccc(F)cc1)c1ccc(Cl)cc1` (single isomer, unassigned) [Example 303], the IC50 (commonly the concentration needed to halve the response being measured) is 57 nM in assay [1], 500 nM on human DGKα and 690 nM on human DGKζ. For the same compound, the EC50 (in general, the midpoint of the concentration-response curve) worked out at 650 nM in the assay on Human venous whole blood and 160 nM with naïve human CD8 T cells.
As to `CC[C@H]1CN(c2cc(=O)n(C)c3ccc(C#N)nc23)CCN1C(c1ccc(F)cc1)c1ccc(F)cc1` [Example 128, (S)-8-(4-(bis(4-fluorophenyl)methyl)-3-ethylpiperazin-1-yl)-5-methyl-6-oxo-5,6-dihydro-1,5-naphthyridine-2-carbonitrile], the IC50 was determined as 940 nM in assay [1] (Mus musculus, MC-38); 47000 nM at human DGKα; 2000 nM at human DGKζ. The EC50 stood at 20000 nM in the assay on Human venous whole blood (Homo sapiens, 24 h) and 1400 nM in the assay on naïve human CD8 T cells (Homo sapiens, T-cell, 20 h).
For `COCC1CN(c2cc(=O)n(C)c3ccc(C#N)nc23)CCN1C(c1ccc(F)cc1)c1ccc(F)cc1` (single isomer, unassigned) [Example 92, 8-(4-(bis(4-fluorophenyl)methyl)-3-(methoxymethyl)piperazin-1-yl)-5-methyl-6-oxo-5,6-dihydro-1,5-naphthyridine-2-carbonitrile], the IC50 in assay [1] came out at 690 nM; on human DGKα, 96000 nM; on human DGKζ it was 5400 nM. Also, the values for the EC50 with Human venous whole blood and in the assay with naïve human CD8 T cells were 9000 nM and 9700 nM, respectively.
For the compound `COC(=O)C1CN(c2cc(=O)n(C)c3ccc(C#N)nc23)CCN1C(c1ccc(F)cc1)c1ccc(F)cc1` (stereo not drawn) [Example 27, Methyl 1-(bis(4-fluorophenyl)methyl)-4-(6-cyano-1-methyl-2-oxo-1,2-dihydro-1,5-naphthyridin-4-yl)piperazine-2-carboxylate], the IC50 in assay [1] (Mus musculus, MC-38) was 64 nM; at human DGKα it was 240000 nM; on human DGKζ it was 1700 nM. Besides, the EC50 was 520 nM in the assay with Human venous whole blood (Homo sapiens) and 62 nM in the assay with naïve human CD8 T cells (Homo sapiens, T-cell, 20 h).
For the compound `COc1cc(F)ccc1C(c1ccc(F)cc1)N1C[C@H](C)N(c2cc(=O)n(C)c3ccc(C#N)nc23)C[C@H]1C` (single isomer, unassigned) [Example 108], the IC50 in assay [1] came to 130 nM; on human DGKα it was 3400 nM; at human DGKζ it was 130 nM. Also, the EC50 in the assay with Human venous whole blood came to 440 nM; in the assay with naïve human CD8 T cells, 33 nM.
For `CC(C)[C@@H]1CN(c2cc(=O)n(C)c3ccc(C#N)nc23)CCN1C(c1ccc(Cl)cc1)c1ccc(Cl)cc1` [Example 167, (R)-8-(4-(bis(4-chlorophenyl)methyl)-3-isopropylpiperazin-1-yl)-5-methyl-6-oxo-5,6-dihydro-1,5-naphthyridine-2-carbonitrile], the IC50 in assay [1] (Mus musculus, MC-38) amounted to 10000 nM; on human DGKα it was 7700 nM; at human DGKζ it was 58000 nM. Besides, the concentration giving a half-maximal response (EC50) in the assay with Human venous whole blood (Homo sapiens, 24 h) is 20000 nM; in the assay with naïve human CD8 T cells (Homo sapiens, T-cell, 20 h), 10000 nM.
In the case of `C[C@@H]1CN(c2c(Br)c(=O)n(C)c3ccc(C#N)nc23)[C@@H](C)CN1C(c1ccc(F)cc1)c1ccc(F)cc1` [Example 19, 8-((2S,5R)-4-(bis(4-fluorophenyl)methyl)-2,5-dimethylpiperazin-1-yl)-7-bromo-5-methyl-6-oxo-5,6-dihydro-1,5-naphthyridine-2-carbonitrile], the IC50 in assay [1] (Mus musculus, MC-38) was determined as 8700 nM; at human DGKα, 42000 nM; at human DGKζ, 240000 nM. Besides, the concentration giving a half-maximal response (EC50) in the assay on Human venous whole blood (Homo sapiens, 24 h) worked out at 20000 nM; in the assay with naïve human CD8 T cells (Homo sapiens, T-cell, 20 h), 10000 nM.
The corresponding values for `Cn1c(=O)cc(N2CCN(C(c3ccc(F)cc3)c3ccc(F)cc3)C(CF)C2)c2nc(C#N)ccc21` (stereo not drawn) [Example 8, 8-(4-(bis(4-fluorophenyl)methyl)-3-(fluoromethyl)piperazin-1-yl)-5-methyl-6-oxo-5,6-dihydro-1,5-naphthyridine-2-carbonitrile] are 1000 nM, 17000 nM, 5000 nM, 14000 nM and 230 nM.
On to `COc1cc(F)ccc1C(c1ccc(F)cc1)N1C[C@H](C)N(c2cc(=O)n(C)c3ccc(C#N)nc23)C[C@H]1C` (single isomer, unassigned) [Example 109], for which the results for the IC50 (in assay [1]; on human DGKα; at human DGKζ) were 480 nM, 24000 nM and 100 nM, respectively. Also, the results for the EC50 with Human venous whole blood and with naïve human CD8 T cells were 1300 nM and 15 nM, respectively.
On to `Cc1c(N2CCN(C(c3ccc(F)cc3)c3ccc(F)cc3)[C@H](C)C2)c2nc(C#N)ccc2n(C)c1=O` [Example 99, (R)-8-(4-(bis(4-fluorophenyl)methyl)-3-methylpiperazin-1-yl)-5,7-dimethyl-6-oxo-5,6-dihydro-1,5-naphthyridine-2-carbonitrile], for which the IC50 in assay [1] (Mus musculus, MC-38) was 1200 nM; on human DGKα, 7000 nM; on human DGKζ it was 2800 nM. Also, the EC50 with Human venous whole blood (Homo sapiens, 24 h) was 2800 nM; in the assay on naïve human CD8 T cells (Homo sapiens, T-cell, 20 h), 170 nM.
With `COc1cc(F)ccc1C(c1ccc(F)cc1)N1C[C@H](C)N(c2cc(=O)n(C)c3ccc(C#N)nc23)C[C@H]1C` (single isomer, unassigned) [Example 119], the IC50 in assay [1] is 6300 nM; at human DGKα, 29000 nM; on human DGKζ, 1700 nM. The EC50 was 5100 nM in the assay on Human venous whole blood and 610 nM in the assay on naïve human CD8 T cells.
The corresponding values for `Cn1c(=O)cc(N2CCN(C(c3ccc(F)cc3)c3ccc(F)cc3)C(CO)C2)c2nc(C#N)ccc21` (single isomer, unassigned) [Example 1, 8-(4-(bis(4-fluorophenyl)methyl)-3-(hydroxymethyl)piperazin-1-yl)-5-methyl-6-oxo-5,6-dihydro-1,5-naphthyridine-2-carbonitrile] are 230 nM, 3000 nM, 480 nM, 820 nM and 96 nM.
As to `Cn1c(=O)cc(N2CCN(C(c3ccc(F)cc3)c3ccc(F)cc3)C(C(N)=O)C2)c2nc(C#N)ccc21` (single isomer, unassigned) [Example 42, 1-(bis(4-fluorophenyl)methyl)-4-(6-cyano-1-methyl-2-oxo-1,2-dihydro-1,5-naphthyridin-4-yl)piperazine-2-carboxamide], the IC50 stood at 2600 nM in assay [1] (Mus musculus, MC-38); 180000 nM at human DGKα; 9700 nM on human DGKζ. The EC50 with Human venous whole blood (Homo sapiens, 24 h) worked out at 3100 nM; in the assay on naïve human CD8 T cells, 610 nM.
For `C[C@@H]1CN(c2cc(=O)n(C)c3ccc(C#N)nc23)[C@@H](C)CN1C(c1ccc(Cl)cc1)c1ccc(Cl)cc1` [Example 25, 8-((2S,5R)-4-(bis(4-chlorophenyl)methyl)-2,5-dimethylpiperazin-1-yl)-5-methyl-6-oxo-5,6-dihydro-1,5-naphthyridine-2-carbonitrile], the IC50 came to 41 nM in assay [1] (Mus musculus, MC-38); 650 nM on human DGKα; 250 nM on human DGKζ. In addition, the EC50 stood at 390 nM with Human venous whole blood (Homo sapiens, 24 h) and 4.3 nM with naïve human CD8 T cells (Homo sapiens, T-cell, 20 h).
The corresponding values for `Cc1cc(C2CN(c3cc(=O)n(C)c4ccc(C#N)nc34)CC(C)N2C(c2ccc(F)cc2)c2ccc(F)cc2)ccn1` (stereo not drawn) [Example 84, 8-(4-(bis(4-fluorophenyl)methyl)-3-methyl-5-(2-methylpyridin-4-yl)piperazin-1-yl)-5-methyl-6-oxo-5,6-dihydro-1,5-naphthyridine-2-carbonitrile] are 10000 nM, 81000 nM, 240000 nM, 20000 nM and 10000 nM.

These data come from patent US10669272B2, “Substituted naphthyridinone compounds useful as T cell activators” (BRISTOL-MYERS SQUIBB COMPANY, priority 2018, dated 2020).
